From PubChem BioAssay AID248 (DTP/NCI, 2004)
Inconclusive results and toxic doses are left out.

System: L1210 leukemia ip in BDF1 mice, survival T/C
Test: NCI In Vivo Anticancer Drug Screen. Data for tumor model L1210 Leukemia (intraperitoneal) in B6D2F1 (BDF1) mice
Settings: higher = longer survival
Summary of the method: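 Antitumor effect is assessed in tumor-bearing animals. Survival in the compound arm is compared with a vehicle-dosed control arm and expressed as their quotient.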

[1] = endpoint: mean survival time, dose: 100.0 mg/kg/injection, schedule: Q01DX001 (ip), vehicle: Klucel (hydroxypropylcellulose) (HPC)
[2] = endpoint: mean survival time, dose: 75.0 mg/kg/injection, schedule: Q01DX001 (ip), vehicle: other
[3] = endpoint: mean survival time, dose: 150.0 mg/kg/injection, schedule: Q01DX001 (ip), vehicle: other
[4] = endpoint: mean survival time, dose: 300.0 mg/kg/injection, schedule: Q01DX001 (ip), vehicle: other
[5] = endpoint: mean survival time, dose: 100.0 mg/kg/injection, schedule: Q01DX009 (ip), vehicle: Klucel (hydroxypropylcellulose) (HPC)
[6] = endpoint: mean survival time, dose: 100.0 mg/kg/injection, schedule: Q04DX003 (ip), vehicle: Klucel (hydroxypropylcellulose) (HPC)
[7] = endpoint: mean survival time, dose: 200.0 mg/kg/injection, schedule: Q01DX009 (ip), vehicle: Klucel (hydroxypropylcellulose) (HPC)
[8] = endpoint: mean survival time, dose: 200.0 mg/kg/injection, schedule: Q04DX003 (ip), vehicle: Klucel (hydroxypropylcellulose) (HPC)
[9] = endpoint: mean survival time, dose: 400.0 mg/kg/injection, schedule: Q01DX009 (ip), vehicle: Klucel (hydroxypropylcellulose) (HPC)
[10] = endpoint: mean survival time, dose: 400.0 mg/kg/injection, schedule: Q04DX003 (ip), vehicle: Klucel (hydroxypropylcellulose) (HPC)
[11] = endpoint: mean survival time, dose: 100.0 mg/kg/injection, schedule: Q01DX001 (ip), vehicle: saline
[12] = endpoint: mean survival time, dose: 200.0 mg/kg/injection, schedule: Q01DX001 (ip), vehicle: saline
[13] = endpoint: mean survival time, dose: 400.0 mg/kg/injection, schedule: Q01DX001 (ip), vehicle: saline
[14] = endpoint: mean survival time, dose: 100.0 mg/kg/injection, schedule: Q01DX001 (ip), vehicle: saline with Tween-80
[15] = endpoint: mean survival time, dose: 200.0 mg/kg/injection, schedule: Q01DX001 (ip), vehicle: saline with Tween-80
[16] = endpoint: mean survival time, dose: 400.0 mg/kg/injection, schedule: Q01DX001 (ip), vehicle: saline with Tween-80
[17] = endpoint: mean survival time, dose: 50.0 mg/kg/injection, schedule: Q01DX001 (ip), vehicle: saline

## Nc1nc(SCc2ccccc2)nc2nc[nH]c12
endpoint: mean survival time, dose: 50.0 mg/kg/injection, schedule: Q01DX001 (ip), vehicle: Klucel (hydroxypropylcellulose) (HPC)
  T/C: 91 % of control
[1]
  T/C: 95 % of control
endpoint: mean survival time, dose: 200.0 mg/kg/injection, schedule: Q01DX001 (ip), vehicle: Klucel (hydroxypropylcellulose) (HPC)
  T/C: 93 % of control

## O=C(O)c1ccc(/C=N/N=C2c3ccccc3-c3ccccc32)cc1
[2]
  T/C: 91 % of control
[3]
  T/C: 86 % of control
[4]
  T/C: 95 % of control

## Clc1ccc(-c2cc(=[N+]3CCC4(CC3)SSC3(CC[N+](=c5cc(-c6ccc(Cl)cc6)ss5)CC3)S4)ss2)cc1 (centres undefined)
endpoint: mean survival time, dose: 25.0 mg/kg/injection, schedule: Q01DX009 (ip), vehicle: water
  T/C: 90 % of control
endpoint: mean survival time, dose: 50.0 mg/kg/injection, schedule: Q01DX009 (ip), vehicle: water
  T/C: 90 % of control
endpoint: mean survival time, dose: 100.0 mg/kg/injection, schedule: Q01DX009 (ip), vehicle: water
  T/C: 88 % of control
endpoint: mean survival time, dose: 400.0 mg/kg/injection, schedule: Q01DX009 (ip), vehicle: water
  T/C: 87 % of control

## Cc1ccc(C)c(NC(=O)Nc2cccc(Cl)c2)c1
[5]
  T/C: 93 % of control
[6]
  T/C: 92 % of control
[7]
  T/C: 96 % of control
[8]
  T/C: 89 % of control
[9]
  T/C: 91 % of control
[10]
  T/C: 87 % of control

## CC1CC(C)(C)C(C[NH-])C1[NH-].[Cl][Pt+2][Cl] (centres undefined)
endpoint: median survival time, dose: 7.5 mg/kg/injection, schedule: Q01DX009 (ip), vehicle: saline
  T/C: 189 % of control
endpoint: median survival time, dose: 15.0 mg/kg/injection, schedule: Q01DX001 (ip), vehicle: saline
  T/C: 173 % of control
endpoint: median survival time, dose: 15.0 mg/kg/injection, schedule: Q01DX009 (ip), vehicle: saline
  T/C: 205 % of control
endpoint: median survival time, dose: 30.0 mg/kg/injection, schedule: Q01DX001 (ip), vehicle: saline
  T/C: 189 % of control
endpoint: median survival time, dose: 30.0 mg/kg/injection, schedule: Q01DX009 (ip), vehicle: saline
  T/C: 105 % of control
endpoint: median survival time, dose: 60.0 mg/kg/injection, schedule: Q01DX001 (ip), vehicle: saline
  T/C: 154 % of control
endpoint: median survival time, dose: 60.0 mg/kg/injection, schedule: Q01DX009 (ip), vehicle: saline
  T/C: 87 % of control
endpoint: median survival time, dose: 120.0 mg/kg/injection, schedule: Q01DX001 (ip), vehicle: saline
  T/C: 209 % of control

## CCC(=O)OC1(c2ccccc2)CCN(CCC(O)c2ccccc2)CC1C (centres undefined)
endpoint: mean survival time, dose: 20.0 mg/kg/injection, schedule: Q04DX003 (ip), vehicle: Klucel (hydroxypropylcellulose) (HPC)
  T/C: 105 % of control
endpoint: mean survival time, dose: 40.0 mg/kg/injection, schedule: Q04DX003 (ip), vehicle: Klucel (hydroxypropylcellulose) (HPC)
  T/C: 105 % of control

## CC(C)=CCSc1ncnc2nc[nH]c12
endpoint: mean survival time, dose: 31.0 mg/kg/injection, schedule: Q01DX Z (ip), vehicle: other
  T/C: 91 % of control
endpoint: mean survival time, dose: 62.0 mg/kg/injection, schedule: Q01DX Z (ip), vehicle: other
  T/C: 117 % of control
endpoint: mean survival time, dose: 125.0 mg/kg/injection, schedule: Q01DX Z (ip), vehicle: other
  T/C: 103 % of control
endpoint: mean survival time, dose: 250.0 mg/kg/injection, schedule: Q01DX Z (ip), vehicle: other
  T/C: 109 % of control

## CC(=O)Oc1ccc(N)cc1OC(C)=O
endpoint: mean survival time, dose: 150.0 mg/kg/injection, schedule: Q01DX001 (ip), vehicle: steriod suspending solution
  T/C: 95 % of control

## CCOc1ccc(N=NS(=O)(=O)O)cc1
endpoint: mean survival time, dose: 1.25 mg/kg/injection, schedule: Q01DX009 (ip), vehicle: saline with Tween-80
  T/C: 94 % of control
endpoint: mean survival time, dose: 2.5 mg/kg/injection, schedule: Q01DX009 (ip), vehicle: saline with Tween-80
  T/C: 91 % of control
endpoint: mean survival time, dose: 5.0 mg/kg/injection, schedule: Q01DX009 (ip), vehicle: saline with Tween-80
  T/C: 94 % of control

## CC(C)C/C=C/C(=O)CC(=O)OC(C)C
[2]
  T/C: 97 % of control
[3]
  T/C: 101 % of control
[4]
  T/C: 117 % of control

## C1C[S][Sn]2([S]CCO1)[S]CCOCC[S]2
endpoint: mean survival time, dose: 12.5 mg/kg/injection, schedule: Q01DX001 (ip), vehicle: saline with Tween-80
  T/C: 94 % of control
endpoint: mean survival time, dose: 25.0 mg/kg/injection, schedule: Q01DX001 (ip), vehicle: saline with Tween-80
  T/C: 106 % of control
endpoint: mean survival time, dose: 50.0 mg/kg/injection, schedule: Q01DX001 (ip), vehicle: saline with Tween-80
  T/C: 87 % of control

## O=C(OC1CC2CC1C1CCCCC21)c1ccc([N+](=O)[O-])cc1 (centres undefined)
endpoint: mean survival time, dose: 50.0 mg/kg/injection, schedule: Q01DX001 (ip), vehicle: carboxymethylcellulose (CMC)
  T/C: 94 % of control
endpoint: mean survival time, dose: 100.0 mg/kg/injection, schedule: Q01DX001 (ip), vehicle: carboxymethylcellulose (CMC)
  T/C: 105 % of control
endpoint: mean survival time, dose: 200.0 mg/kg/injection, schedule: Q01DX001 (ip), vehicle: carboxymethylcellulose (CMC)
  T/C: 100 % of control
endpoint: mean survival time, dose: 400.0 mg/kg/injection, schedule: Q01DX001 (ip), vehicle: carboxymethylcellulose (CMC)
  T/C: 96 % of control

## Nc1ncnc2c1ncn2C1CCC(CO)O1 (centres undefined)
[11]
  T/C: 103 % of control
[12]
  T/C: 115 % of control
[13]
  T/C: 105 % of control

## CCOC(=O)c1c(Cl)c(Cl)c(Cl)c(Cl)c1C(=O)O
[14]
  T/C: 95 % of control
endpoint: mean survival time, dose: 100.0 mg/kg/injection, schedule: Q01DX009 (ip), vehicle: saline with Tween-80
  T/C: 96 % of control
[15]
  T/C: 97 % of control
endpoint: mean survival time, dose: 200.0 mg/kg/injection, schedule: Q01DX009 (ip), vehicle: saline with Tween-80
  T/C: 102 % of control
[16]
  T/C: 115 % of control

## CCOC(=O)c1cc(/C=C/c2ccccc2)[nH]c(=O)c1C#N
[5]
  T/C: 98 % of control
[6]
  T/C: 95 % of control
[7]
  T/C: 97 % of control
[8]
  T/C: 93 % of control
[9]
  T/C: 98 % of control
[10]
  T/C: 90 % of control

## Cc1[nH]c(=O)[nH]c(=O)c1CN1CCCCC1
endpoint: mean survival time, dose: 100.0 mg/kg/injection, schedule: Q04DX003 (ip), vehicle: saline with Tween-80
  T/C: 100 % of control
endpoint: mean survival time, dose: 200.0 mg/kg/injection, schedule: Q04DX003 (ip), vehicle: saline with Tween-80
  T/C: 106 % of control
endpoint: mean survival time, dose: 400.0 mg/kg/injection, schedule: Q04DX003 (ip), vehicle: saline with Tween-80
  T/C: 93 % of control

## COC(=O)CC[C@@H](C)[C@H]1CC[C@H]2[C@@H]3CC[C@@H]4C[C@H](O)CC[C@]4(C)[C@H]3CC[C@]12C
endpoint: mean survival time, dose: 100.0 mg/kg/injection, schedule: Q01DX009 (sc), vehicle: olive oil, sesame oil, peanut oil
  T/C: 107 % of control
endpoint: mean survival time, dose: 200.0 mg/kg/injection, schedule: Q01DX009 (sc), vehicle: olive oil, sesame oil, peanut oil
  T/C: 102 % of control
endpoint: mean survival time, dose: 400.0 mg/kg/injection, schedule: Q01DX009 (sc), vehicle: olive oil, sesame oil, peanut oil
  T/C: 95 % of control

## O=C(CCCC(=O)NNC(=O)Nc1cccc([N+](=O)[O-])c1)NNC(=O)Nc1cccc([N+](=O)[O-])c1
[17]
  T/C: 102 % of control
[11]
  T/C: 102 % of control
[12]
  T/C: 96 % of control
[13]
  T/C: 102 % of control

## COc1ncnc2c1ccn2C1OC(CO)C(O)C1O (centres undefined)
endpoint: mean survival time, dose: 25.0 mg/kg/injection, schedule: Q01DX001 (ip), vehicle: saline
  T/C: 86 % of control
[17]
  T/C: 101 % of control
[11]
  T/C: 101 % of control

## CN1CCC2(CC1)C(=O)N(CC1COc3ccccc3O1)C(=O)C2c1ccccc1 (centres undefined)
[1]
  T/C: 99 % of control

## CC12CCC(O)CC1CCC1C3CC/C(=C\c4ccco4)C(=O)C3CCC12 (centres undefined)
endpoint: mean survival time, dose: 50.0 mg/kg/injection, schedule: Q01DX001 (sc), vehicle: steriod suspending solution
  T/C: 105 % of control
endpoint: mean survival time, dose: 100.0 mg/kg/injection, schedule: Q01DX001 (sc), vehicle: steriod suspending solution
  T/C: 89 % of control
endpoint: mean survival time, dose: 200.0 mg/kg/injection, schedule: Q01DX001 (sc), vehicle: steriod suspending solution
  T/C: 91 % of control

## Cc1ccccc1[P+](Cc1ccccc1)(c1ccccc1)c1ccccc1
endpoint: mean survival time, dose: 5.0 mg/kg/injection, schedule: Q01DX001 (ip), vehicle: saline
  T/C: 105 % of control
endpoint: mean survival time, dose: 10.0 mg/kg/injection, schedule: Q01DX001 (ip), vehicle: saline
  T/C: 103 % of control
endpoint: mean survival time, dose: 20.0 mg/kg/injection, schedule: Q01DX001 (ip), vehicle: saline
  T/C: 100 % of control

## COCCCNCCCN1CC1
endpoint: mean survival time, dose: 31.25 mg/kg/injection, schedule: Q04DX003 (ip), vehicle: saline
  T/C: 105 % of control
endpoint: mean survival time, dose: 62.5 mg/kg/injection, schedule: Q01DX009 (ip), vehicle: saline
  T/C: 106 % of control
endpoint: mean survival time, dose: 62.5 mg/kg/injection, schedule: Q04DX003 (ip), vehicle: saline
  T/C: 114 % of control

## N/C(=C\C(=O)Cl)C(=O)c1ccccc1
[14]
  T/C: 106 % of control
[15]
  T/C: 90 % of control
[16]
  T/C: 105 % of control
